In the assay the test system is L1210 leukemia ip in BDF1 mice, survival T/C. Nature of the assay: NCI In Vivo Anticancer Drug Screen. Data for tumor model L1210 Leukemia (intraperitoneal) in B6D2F1 (BDF1) mice. Particulars: endpoint: mean survival time, higher = longer survival. The essentials: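 Tumor cells were implanted, animals were treated, and survival was followed. The result divides the treated measurement by the vehicle-control measurement.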

The mark [1] stands for this setting: dose: 100.0 mg/kg/injection, schedule: Q01DX001 (ip), vehicle: saline.
The mark [2] stands for this setting: dose: 200.0 mg/kg/injection, schedule: Q01DX001 (ip), vehicle: saline.
Where [3] appears, read: dose: 400.0 mg/kg/injection, schedule: Q01DX001 (ip), vehicle: saline.
Setting [4] is: dose: 100.0 mg/kg/injection, schedule: Q01DX001 (ip), vehicle: Klucel (hydroxypropylcellulose) (HPC).
Where [5] appears, read: dose: 200.0 mg/kg/injection, schedule: Q01DX001 (ip), vehicle: Klucel (hydroxypropylcellulose) (HPC).
[6] abbreviates: dose: 400.0 mg/kg/injection, schedule: Q01DX001 (ip), vehicle: Klucel (hydroxypropylcellulose) (HPC).
Where [7] appears, read: dose: 100.0 mg/kg/injection, schedule: Q01DX009 (ip), vehicle: Klucel (hydroxypropylcellulose) (HPC).
[8] abbreviates: dose: 100.0 mg/kg/injection, schedule: Q01DX009 (ip), vehicle: saline with Tween-80.
[9] abbreviates: dose: 200.0 mg/kg/injection, schedule: Q01DX009 (ip), vehicle: saline with Tween-80.
The mark [10] stands for this setting: dose: 100.0 mg/kg/injection, schedule: Q04DX002 (ip), vehicle: Klucel (hydroxypropylcellulose) (HPC).
The mark [11] stands for this setting: dose: 100.0 mg/kg/injection, schedule: Q04DX003 (ip), vehicle: saline.

Where “and” joins values, the source holds several entries; their conditions need not be identical. Equal entries are not always repeated. Inconclusive results and toxic doses are left out.

Turning to `CC(=O)OCC1OC(n2cnc3c(=S)nc[nH]c32)C(OC(C)=O)C1OC(C)=O` (stereo not given), the T/C is 122 % of control (dose: 6.5 mg/kg/injection, schedule: Q01DX Z (ip), vehicle: carboxymethylcellulose (CMC)); 113 % of control (dose: 13.0 mg/kg/injection, schedule: Q01DX Z (ip), vehicle: carboxymethylcellulose (CMC)); 151 % of control (dose: 40.0 mg/kg/injection, schedule: Q01DX Z (ip), vehicle: carboxymethylcellulose (CMC)); 107 % of control (dose: 180.0 mg/kg/injection, schedule: Q01DX Z (ip), vehicle: carboxymethylcellulose (CMC)).
In the case of `Fc1ccc(NC(=S)Nc2ccc(F)cc2)cc1`, the T/C reads like this: (dose: 15.0 mg/kg/injection, schedule: Q01DX Z (ip), vehicle: carboxymethylcellulose (CMC)) 98 % of control; (dose: 30.0 mg/kg/injection, schedule: Q01DX Z (ip), vehicle: carboxymethylcellulose (CMC)) 101 % of control; (dose: 50.0 mg/kg/injection, schedule: Q01DX001 (ip), vehicle: saline) 117 % of control; (dose: 60.0 mg/kg/injection, schedule: Q01DX Z (ip), vehicle: carboxymethylcellulose (CMC)) 101 % of control and 104 % of control; under setting [1], 113 % of control; (dose: 120.0 mg/kg/injection, schedule: Q01DX Z (ip), vehicle: carboxymethylcellulose (CMC)) 101 % of control and 106 % of control. In addition, the T/C was 120 % of control under setting [2]; 100 % of control (dose: 240.0 mg/kg/injection, schedule: Q01DX Z (ip), vehicle: carboxymethylcellulose (CMC)); 95 % of control (dose: 240.0 mg/kg/injection, schedule: Q01DX Z (oral), vehicle: carboxymethylcellulose (CMC)); 106 % of control (dose: 480.0 mg/kg/injection, schedule: Q01DX Z (ip), vehicle: carboxymethylcellulose (CMC)); 104 % of control (dose: 480.0 mg/kg/injection, schedule: Q01DX Z (oral), vehicle: carboxymethylcellulose (CMC)); 107 % of control (dose: 960.0 mg/kg/injection, schedule: Q01DX Z (oral), vehicle: carboxymethylcellulose (CMC)). Besides, the T/C (dose: 1920.0 mg/kg/injection, schedule: Q01DX Z (oral), vehicle: carboxymethylcellulose (CMC)) was 100 % of control.
As to `CN(CC1CNc2nc(N)[nH]c(=O)c2N1C)c1ccc(C(=O)NC(CCC(=O)O)C(=O)O)cc1` (stereo not given), the T/C under setting [1] is 94 % of control, the T/C under setting [2] is 102 % of control and the T/C under setting [3] was 94 % of control.
Turning to `CC(=O)Nc1ccc(S(=O)(=O)CO)cc1`, the T/C was 102 % of control under setting [4], 102 % of control under setting [5] and 102 % of control under setting [6].
Regarding `CN(c1ccccc1)[N+](=O)[O-]`, the T/C is 94 % of control (dose: 100.0 mg/kg/injection, schedule: Q01DX001 (ip), vehicle: other); 97 % of control (dose: 200.0 mg/kg/injection, schedule: Q01DX001 (ip), vehicle: other); 97 % of control (dose: 400.0 mg/kg/injection, schedule: Q01DX001 (ip), vehicle: other).
Take `O=C(O)c1c(F)c(F)c(Br)c(F)c1F`: the T/C (dose: 25.6 mg/kg/injection, schedule: Q04DX002 (ip), vehicle: saline with Tween-80) is 168 % of control; the T/C (dose: 64.0 mg/kg/injection, schedule: Q04DX002 (ip), vehicle: saline with Tween-80) was 91 % of control; the T/C (dose: 160.0 mg/kg/injection, schedule: Q04DX002 (ip), vehicle: saline with Tween-80) is 94 % of control; the T/C (dose: 400.0 mg/kg/injection, schedule: Q04DX002 (ip), vehicle: saline with Tween-80) is 94 % of control.
Take `Cc1ncc(CO)c(Nc2ccccc2Cl)n1`: the T/C (dose: 12.5 mg/kg/injection, schedule: Q04DX003 (ip), vehicle: Klucel (hydroxypropylcellulose) (HPC)) is 88 % of control; the T/C (dose: 25.0 mg/kg/injection, schedule: Q04DX003 (ip), vehicle: Klucel (hydroxypropylcellulose) (HPC)) was 102 % of control; the T/C (dose: 50.0 mg/kg/injection, schedule: Q04DX003 (ip), vehicle: Klucel (hydroxypropylcellulose) (HPC)) was 98 % of control.
With `Nc1nc(Cl)c2nnn(C3CC(O)C(CO)C3)c2n1` (stereo not given), the T/C runs as follows: (dose: 25.0 mg/kg/injection, schedule: Q01DX009 (ip), vehicle: Klucel (hydroxypropylcellulose) (HPC)) 118 % of control; (dose: 50.0 mg/kg/injection, schedule: Q01DX009 (ip), vehicle: Klucel (hydroxypropylcellulose) (HPC)) 105 % of control; under setting [7], 100 % of control.
Turning to `C=CCCCCC/C=C/CCCCCC`, the T/C under setting [8] was 89 % of control and the T/C under setting [9] is 92 % of control.
`O=C(OCc1ccccc1CN1CCCC1)c1ccccc1`: the T/C is, setting by setting: (dose: 25.0 mg/kg/injection, schedule: Q01DX001 (ip), vehicle: Klucel (hydroxypropylcellulose) (HPC)) 98 % of control; (dose: 50.0 mg/kg/injection, schedule: Q01DX001 (ip), vehicle: Klucel (hydroxypropylcellulose) (HPC)) 95 % of control; under setting [4], 98 % of control and 102 % of control.
In the case of `COc1nc(N)c(C(N)=O)cc1C#N`, where the note is “dose: 87.0 mg/kg/injection, schedule: Q04DX003 (ip), vehicle: Klucel (hydroxypropylcellulose) (HPC)”, the T/C was 97 % of control.
Take `Cc1nc2ccccc2[nH]1`: the T/C by setting is: (dose: 25.0 mg/kg/injection, schedule: Q04DX002 (ip), vehicle: Klucel (hydroxypropylcellulose) (HPC)) 109 % of control; (dose: 50.0 mg/kg/injection, schedule: Q04DX002 (ip), vehicle: Klucel (hydroxypropylcellulose) (HPC)) 105 % of control; under setting [10], 105 % of control.
In the case of `CCOC(=O)c1ccc(N)cc1C(=O)OCC`, the T/C is 93 % of control under setting [4], 95 % of control under setting [5] and 87 % of control under setting [6].
`CCC(=O)OCc1ccc(Cl)cc1`: the T/C by setting is: under setting [7], 97 % of control; (dose: 100.0 mg/kg/injection, schedule: Q04DX003 (ip), vehicle: Klucel (hydroxypropylcellulose) (HPC)) 101 % of control; (dose: 200.0 mg/kg/injection, schedule: Q01DX009 (ip), vehicle: Klucel (hydroxypropylcellulose) (HPC)) 95 % of control; (dose: 200.0 mg/kg/injection, schedule: Q04DX003 (ip), vehicle: Klucel (hydroxypropylcellulose) (HPC)) 96 % of control; (dose: 400.0 mg/kg/injection, schedule: Q01DX009 (ip), vehicle: Klucel (hydroxypropylcellulose) (HPC)) 94 % of control; (dose: 400.0 mg/kg/injection, schedule: Q04DX003 (ip), vehicle: Klucel (hydroxypropylcellulose) (HPC)) 95 % of control.
As to `COc1cc(C(=O)NCCBr)cc(OC)c1OC`, the T/C is 107 % of control under setting [11]; 108 % of control (dose: 200.0 mg/kg/injection, schedule: Q04DX003 (ip), vehicle: saline); 103 % of control (dose: 400.0 mg/kg/injection, schedule: Q04DX003 (ip), vehicle: saline).
With `CC(=O)OCC1OC(Sc2nc3ncnc(N)c3[nH]2)C(OC(C)=O)C(OC(C)=O)C1OC(C)=O` (stereo not given), the T/C was 104 % of control under setting [1], 102 % of control under setting [2] and 97 % of control under setting [3].
In the case of `COC(=O)C(C)NC(=O)Cc1ccccc1` (stereo not given), the T/C is 94 % of control under setting [8]; 98 % of control (dose: 100.0 mg/kg/injection, schedule: Q04DX003 (ip), vehicle: saline with Tween-80); 92 % of control under setting [9]; 101 % of control (dose: 200.0 mg/kg/injection, schedule: Q04DX003 (ip), vehicle: saline with Tween-80); 92 % of control (dose: 400.0 mg/kg/injection, schedule: Q01DX009 (ip), vehicle: saline with Tween-80); 97 % of control (dose: 400.0 mg/kg/injection, schedule: Q04DX003 (ip), vehicle: saline with Tween-80).
Take `CNCCN(C)Cc1ccccc1`: the T/C is, setting by setting: (dose: 25.0 mg/kg/injection, schedule: Q01DX009 (ip), vehicle: saline) 101 % of control; (dose: 25.0 mg/kg/injection, schedule: Q04DX003 (ip), vehicle: saline) 106 % of control; (dose: 50.0 mg/kg/injection, schedule: Q01DX009 (ip), vehicle: saline) 97 % of control; (dose: 50.0 mg/kg/injection, schedule: Q04DX003 (ip), vehicle: saline) 98 % of control; (dose: 100.0 mg/kg/injection, schedule: Q01DX009 (ip), vehicle: saline) 98 % of control; under setting [11], 98 % of control and 91 % of control.
Turning to `O=C(c1ccc(C(=O)Nc2cccc3ccccc23)c(C(=O)O)c1)c1ccc(C(=O)Nc2cccc3ccccc23)c(C(=O)O)c1`, the T/C was 97 % of control under setting [10]; 94 % of control (dose: 200.0 mg/kg/injection, schedule: Q04DX002 (ip), vehicle: Klucel (hydroxypropylcellulose) (HPC)); 94 % of control (dose: 400.0 mg/kg/injection, schedule: Q04DX002 (ip), vehicle: Klucel (hydroxypropylcellulose) (HPC)).

For the origin of these results see PubChem BioAssay AID248 (DTP/NCI, 2004).
